Assay results as given in the SangsterLogP compilation.

Test: method code SF, from DOI: 10.1002/jps.2600790712, PMID: 2398468

SMILES | logP
C[C@H](CCCNCc1ccccc1)[C@H]1CC[C@H]2[C@@H]3C[C@H](O)[C@@H]4C[C@H](O)CC[C@]4(C)[C@H]3CC[C@]12C | 4.15

Test: method code SF-AS, from DOI: 10.1002/jps.2600790712, PMID: 2398468

SMILES | logP
C[C@H](CCCNCc1cccc(Cl)c1)[C@H]1CC[C@H]2[C@@H]3CC[C@@H]4C[C@H](O)CC[C@]4(C)[C@H]3CC[C@]12C | 4.95
C[C@H](CCCNCc1ccccc1)[C@H]1CC[C@H]2[C@@H]3CC[C@@H]4C[C@H](O)CC[C@]4(C)[C@H]3CC[C@]12C | 4.9
C[C@H](CCCN)[C@H]1CC[C@H]2[C@@H]3[C@@H](O)C[C@@H]4C[C@H](O)CC[C@]4(C)[C@H]3CC[C@]12C | 4
C[C@H](CCC(=O)NCc1ccccc1)[C@H]1CC[C@H]2[C@@H]3[C@H](O)C[C@@H]4C[C@H](O)CC[C@]4(C)[C@H]3C[C@H](O)[C@]12C | 3.54
C[C@H](CCCNCc1ccccc1)[C@H]1CC[C@H]2[C@@H]3[C@H](O)C[C@@H]4C[C@H](O)CC[C@]4(C)[C@H]3CC[C@]12C | 4.2
C[C@H](CCCNCc1ccccc1)[C@H]1CC[C@H]2[C@@H]3CC[C@@H]4C[C@H](O)CC[C@]4(C)[C@H]3C[C@H](O)[C@]12C | 4.8
C[C@H](CCCNCc1ccc(Cl)cc1)[C@H]1CC[C@H]2[C@@H]3CC[C@@H]4C[C@H](O)CC[C@]4(C)[C@H]3CC[C@]12C | 5
C[C@H](CCCNCc1ccccc1)[C@H]1CC[C@H]2[C@@H]3[C@H](O)C[C@@H]4C[C@H](O)CC[C@]4(C)[C@H]3C[C@H](O)[C@]12C | 3.82
C[C@H](CCCNCc1ccccc1Cl)[C@H]1CC[C@H]2[C@@H]3CC[C@@H]4C[C@H](O)CC[C@]4(C)[C@H]3CC[C@]12C | 5.05
